Molecular target: T1, SARM1 (50-724) (Homo sapiens, UniProt Q6SZW1)
T1 construct: Purified SARM1 (50-724) with a final concentration of 2 nM was pre-incubated with a test compound
T1 sequence (Q6SZW1 50-724): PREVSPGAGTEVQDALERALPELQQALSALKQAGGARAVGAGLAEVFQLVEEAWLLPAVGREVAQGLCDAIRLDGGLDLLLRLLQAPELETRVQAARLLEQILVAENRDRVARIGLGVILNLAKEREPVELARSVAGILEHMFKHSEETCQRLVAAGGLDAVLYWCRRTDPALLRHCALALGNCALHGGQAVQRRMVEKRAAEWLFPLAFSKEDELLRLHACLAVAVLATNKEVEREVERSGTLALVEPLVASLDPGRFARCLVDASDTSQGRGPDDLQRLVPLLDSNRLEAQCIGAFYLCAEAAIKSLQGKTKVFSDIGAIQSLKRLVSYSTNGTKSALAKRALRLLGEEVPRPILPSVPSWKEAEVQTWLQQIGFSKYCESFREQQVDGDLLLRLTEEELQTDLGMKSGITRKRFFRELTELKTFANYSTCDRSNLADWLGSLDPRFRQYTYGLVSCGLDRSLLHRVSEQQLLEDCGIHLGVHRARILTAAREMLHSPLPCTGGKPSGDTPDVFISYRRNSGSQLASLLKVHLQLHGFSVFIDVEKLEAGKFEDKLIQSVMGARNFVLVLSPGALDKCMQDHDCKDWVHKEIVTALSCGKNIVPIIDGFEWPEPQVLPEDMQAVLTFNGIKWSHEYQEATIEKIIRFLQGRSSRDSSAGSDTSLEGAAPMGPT
Assay: SARM1 (50-724) enzymatic assay (LC-MS/MS)
Type: biochemical
Details: Purified SARM1 (50-724) 2 nM, NMN as activator, NAD+ as substrate, 1 h at room temperature, read-out: IC50 (SARM1 inhibitory activity)
Method: An enzymatic assay was performed in a 384-well plate using Dulbecco's phosphate-buffered saline (PBS) as the reaction buffer. Purified SARM1 (50-724) with a final concentration of 2 nM was pre-incubated with a test compound at […] final assay concentration for 15 min at room temperature. The reaction was initiated by adding a mixture of […] nicotinamide mononucleotide (NMN) as activator and […] NAD^+ as substrate. After 1 h of incubation at room temperature, the reaction was terminated with 10 times volume of 70% acetonitrile, and then centrifuged at 3800 rpm for 10 min. The samples were analyzed using LC-MS/MS after diluted to a proper concentration by 10 mM ammonium acetate (pH 9.75).
In Table 2, activity is provided as follows: A: IC50≤100 nM; B: 100 nM<IC50≤500 nM; C: 500 nM<IC50≤1000 nM; D: IC50>1000 nM.

Row | Structure (SMILES) | IC50 [nM]
1 | CC(C#N)c1ccc2[nH]c(-c3nncn3-c3ccc(F)c(F)c3Cl)nc2c1 (centres unmarked) [Compound 152, 2-(2-(4-(2-chloro-3,4-difluorophenyl)-4H-1,2,4-triazol-3-yl)-1H-benzo[d]imidazol-5-yl)propanenitrile] | ≤ 100
2 | C[S+]([O-])c1ccc2[nH]c(-c3nncn3-c3cccc(Cl)c3Cl)nc2c1 (centres unmarked) [Compound 153, 2-(4-(2,3-dichlorophenyl)-4H-1,2,4-triazol-3-yl)-5-(methylsulfinyl)-1H-benzo[d]imidazole] | 100 to 500
3 | CC1(c2ccc3[nH]c(-c4nncn4-c4cccc(Cl)c4Cl)nc3c2)CCO1 (centres unmarked) [Compound 154, 2-(4-(2,3-dichlorophenyl)-4H-1,2,4-triazol-3-yl)-5-(2-methyloxetan-2-yl)-1H-benzo[d]imidazole] | ≤ 100
4 | COC(C)c1ccc2[nH]c(-c3nncn3-c3ccc(F)c(F)c3Cl)nc2c1 (centres unmarked) [Compound 155, 2-(4-(2-chloro-3,4-difluorophenyl)-4H-1,2,4-triazol-3-yl)-5-(1-methoxyethyl)-1H-benzo[d]imidazole] | ≤ 100
5 | CNC(=O)CCc1nnc(-c2nc3cc(C(F)(F)F)ccc3[nH]2)n1-c1cccc(Cl)c1Cl [Compound 156, 3-(4-(2,3-dichlorophenyl)-5-(5-(trifluoromethyl)-1H-benzo[d]imidazol-2-yl)-4H-1,2,4-triazol-3-yl)-N-methylpropanamide] | ≤ 100
6 | FC1(F)CN(Cc2nnc(-c3nc4cc(C(F)(F)F)ccc4[nH]3)n2-c2cccc(Cl)c2Cl)C1 [Compound 157, 2-(4-(2,3-dichlorophenyl)-5-((3,3-difluoroazetidin-1-yl)methyl)-4H-1,2,4-triazol-3-yl)-5-(trifluoromethyl)-1H-benzo[d]imidazole] | ≤ 100
7 | CC(=O)c1ccc2[nH]c(-c3nncn3-c3ccc(F)c(F)c3Cl)nc2c1 [Compound 158, 1-(2-(4-(2-chloro-3,4-difluorophenyl)-4H-1,2,4-triazol-3-yl)-1H-benzo[d]imidazol-5-yl)ethan-1-one] | ≤ 100
8 | N#Cc1cccc(-n2cnnc2-c2nc3cc(C(F)(F)F)ccc3[nH]2)c1Cl [Compound 159, 2-chloro-3-(3-(5-(trifluoromethyl)-1H-benzo[d]imidazol-2-yl)-4H-1,2,4-triazol-4-yl)benzonitrile] | ≤ 100
9 | FC(F)(F)Oc1ccccc1-n1cnnc1-c1nc2cc(C(F)(F)F)ccc2[nH]1 [Compound 160] | ≤ 100
10 | O=c1cc(-n2cnnc2-c2nc3cc(C(F)(F)F)ccc3[nH]2)c(Cl)c[nH]1 [Compound 163, 5-Chloro-4-(3-(5-(trifluoromethyl)-1H-benzo[d]imidazol-2-yl)-4H-1,2,4-triazol-4-yl)pyridin-2(1H)-one] | ≤ 100
11 | Cc1c(Cl)ccc2[nH]c(-c3nncn3-c3ccc(F)c(F)c3Cl)nc12 [Compound 164, 5-chloro-2-(4-(2-chloro-3,4-difluorophenyl)-4H-1,2,4-triazol-3-yl)-4-methyl-1H-benzo[d]imidazole] | ≤ 100
12 | CN1CCC(C)(c2ccc3[nH]c(-c4nncn4-c4ccc(F)c(F)c4Cl)nc3c2)C1=O (centres unmarked) [Compound 165, 3-(2-(4-(2-chloro-3,4-difluorophenyl)-4H-1,2,4-triazol-3-yl)-1H-benzo[d]imidazol-5-yl)-1,3-dimethylpyrrolidin-2-one] | 100 to 500
13 | FC(F)(F)c1ccc2[nH]c(-c3nncn3-c3c(Cl)cccc3-c3ccn[nH]3)nc2c1 [Compound 168, 2-(4-(2-chloro-6-(1H-pyrazol-5-yl)phenyl)-4H-1,2,4-triazol-3-yl)-5-(trifluoromethyl)-1H-benzo[d]imidazole] | 100 to 500
14 | COc1ncc(Cl)c(-n2cnnc2-c2nc3cc(C(F)(F)F)ccc3[nH]2)n1 [Compound 169, 2-(4-(5-chloro-2-methoxypyrimidin-4-yl)-4H-1,2,4-triazol-3-yl)-5-(trifluoromethyl)-1H-benzo[d]imidazole] | > 1000
15 | Fc1ccc(-n2cnnc2-c2nc3cc(C(F)(F)F)cnc3[nH]2)c(Cl)c1F [Compound 170, 2-(4-(2-chloro-3,4-difluorophenyl)-4H-1,2,4-triazol-3-yl)-6-(trifluoromethyl)-3H-imidazo[4,5-b]pyridine] | ≤ 100
16 | NC(=O)C1(c2ccc3[nH]c(-c4nncn4-c4ccc(F)c(F)c4Cl)nc3c2)CC1 [Compound 171, 1-(2-(4-(2-chloro-3,4-difluorophenyl)-4H-1,2,4-triazol-3-yl)-1H-benzo[d]imidazol-5-yl)cyclopropane-1-carboxamide] | ≤ 100
17 | CCN(C)C(=O)c1ccc2[nH]c(-c3nncn3-c3ccc(F)c(F)c3Cl)nc2c1 [Compound 172, 2-(4-(2-chloro-3,4-difluorophenyl)-4H-1,2,4-triazol-3-yl)-N-ethyl-N-methyl-1H-benzo[d]imidazole-5-carboxamide] | > 1000
18 | Cn1cc(Cl)c(-n2cnnc2-c2nc3cc(C(F)(F)F)ccc3[nH]2)cc1=O [Compound 173, 5-chloro-1-methyl-4-(3-(5-(trifluoromethyl)-1H-benzo[d]imidazol-2-yl)-4H-1,2,4-triazol-4-yl)pyridin-2(1H)-one] | 100 to 500
19 | NC(=O)c1cc(Cl)c(Cl)c(-n2cnnc2-c2nc3cc(C(F)(F)F)ccc3[nH]2)c1 [Compound 174, 3,4-dichloro-5-(3-(5-(trifluoromethyl)-1H-benzo[d]imidazol-2-yl)-4H-1,2,4-triazol-4-yl)benzamide] | ≤ 100
20 | CNc1ccc(Cl)c(-n2cnnc2-c2nc3cc(C(F)(F)F)ccc3[nH]2)n1 [Compound 175, 5-Chloro-N-methyl-6-(3-(5-(trifluoromethyl)-1H-benzo[d]imidazol-2-yl)-4H-1,2,4-triazol-4-yl)pyridin-2-amine] | ≤ 100
21 | Cc1cnc2[nH]c(-c3nncn3-c3cccc(F)c3Cl)nc2n1 [Compound 176, 2-(4-(2-chloro-3-fluorophenyl)-4H-1,2,4-triazol-3-yl)-6-methyl-1H-imidazo[4,5-b]pyrazine] | > 1000
22 | FC(F)(F)Oc1cccnc1-n1cnnc1-c1nc2cc(C(F)(F)F)ccc2[nH]1 [Compound 177] | ≤ 100
23 | CC1(c2ccc3[nH]c(-c4nncn4-c4cccc(F)c4Cl)nc3c2)CS(=O)(=O)C1 [Compound 178, 3-(2-(4-(2-chloro-3-fluorophenyl)-4H-1,2,4-triazol-3-yl)-1H-benzo[d]imidazol-5-yl)-3-methylthietane 1,1-dioxide] | 100 to 500
24 | Cn1cc(-c2cccc(F)c2Cl)c(-c2nc3cc(CC(N)=O)ccc3[nH]2)cc1=O [Compound 179, 2-(2-(5-(2-chloro-3-fluorophenyl)-1-methyl-2-oxo-1,2-dihydropyridin-4-yl)-1H-benzo[d]imidazol-5-yl)acetamide] | 100 to 500
25 | N#CC1(c2ccc3[nH]c(-c4nncn4-c4cccc(F)c4Cl)nc3c2)COC1 [Compound 180, 3-(2-(4-(2-chloro-3-fluorophenyl)-4H-1,2,4-triazol-3-yl)-1H-benzo[d]imidazol-5-yl)oxetane-3-carbonitrile] | ≤ 100
26 | CS(=O)(=O)Cc1nnc(-c2nc3cc(C(F)(F)F)cc(F)c3[nH]2)n1-c1cccc(F)c1Cl [Compound 182, 2-(4-(2-Chloro-3-fluorophenyl)-5-((methylsulfonyl)methyl)-4H-1,2,4-triazol-3-yl)-7-fluoro-5-(trifluoromethyl)-1H-benzo[d]imidazole] | ≤ 100

Reference: US20260258064A1 (SIRONAX LTD., priority 2023, published 2026)
